Earlier results, collected in US20250186473A1, “Compositions and Methods for Treating Kidney Disease” (Neukidney Incorporated, priority 2023, published 2025).

Tested on: CKD in rat models
Settings: oral supplementation, BUN, serum creatinine, fibrosis

## NC(=O)c1cccnc1 [Nicotinamide]
  effect on progression of CKD: attenuated progression of CKD
